According to publication PMC12491701, “Discovery of an APP-selective BACE1 inhibitor for Alzheimer's disease” (Neurotherapeutics, 2025):
Like-named read-outs stand apart in the source and are kept apart here.

What was measured:
BACE1 cleavage of NRG1 = target: T1, BACE1 cleavage of NRG1 (Homo sapiens, UniProt P56817); experiment: SEAP-NRG assay; type: cell-based
T1 construct: with or without full-length wild-type BACE1; expressed in transfected cells; host or cells: HEK293
Description: A cDNA construct encoding a human placental secreted alkaline phosphatase (SEAP)-NRG1 (pAPtag5-NRG1-β1) fusion protein was transfected in human embryonic kidney (HEK293) cells in a 6-well format with or without full-length wild-type BACE1 using Lipofectamine 2000 (Invitrogen) as described previously [27]. After transfection, the medium was replaced with DMEM containing the test compound at 10, 5, 1, 0.1, and 0.01 ​μM as well as 10 ​% heat-inactivated fetal bovine serum (FBS), then incubated for 24 ​h. SEAP activity was measured in the conditioned medium.

[1] = target: T2, human serum albumin (HSA) (Homo sapiens, UniProt P02768); experiment: Human serum albumin (HSA) binding assay; type: in vitro ADME
T2 construct: purchased Chiral Technologies H15L-109
T2 sequence (P02768 25-609): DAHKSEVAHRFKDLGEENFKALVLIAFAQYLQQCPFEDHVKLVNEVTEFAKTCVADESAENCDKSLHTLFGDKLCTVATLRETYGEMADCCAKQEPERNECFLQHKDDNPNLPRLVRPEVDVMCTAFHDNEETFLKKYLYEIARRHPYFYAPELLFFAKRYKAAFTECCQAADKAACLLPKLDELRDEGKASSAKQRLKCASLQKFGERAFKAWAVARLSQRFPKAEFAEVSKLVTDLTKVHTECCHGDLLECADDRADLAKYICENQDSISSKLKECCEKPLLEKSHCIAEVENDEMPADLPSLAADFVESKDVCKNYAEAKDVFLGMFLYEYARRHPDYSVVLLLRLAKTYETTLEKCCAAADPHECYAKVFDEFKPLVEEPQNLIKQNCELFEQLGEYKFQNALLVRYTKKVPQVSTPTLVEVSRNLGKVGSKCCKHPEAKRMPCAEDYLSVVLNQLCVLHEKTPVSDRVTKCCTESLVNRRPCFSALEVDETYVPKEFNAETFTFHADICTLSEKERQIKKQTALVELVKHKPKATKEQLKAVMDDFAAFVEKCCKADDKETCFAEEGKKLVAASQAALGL
Description: Human serum albumin (HSA) binding assay
The liquid chromatography-ultraviolet/visible spectroscopy (LC-UV/Vis) assay was performed on a 1290 Infinity HPLC system (Agilent Technologies) with an HPLC column containing immobilized HSA
([…]® CAN, Chiral Technologies, Cat#H15L-109, 5 µm 50 x 4 mm). The HPLC method utilized an isocratic gradient containing 100% 6.7 mM phosphate buffer saline (pH 7.4). The retention time of the compound (tr) and injection peak were recorded.
The percent protein binding (P) was calculated using the following equations:
K’ = (tr – tm) / tm; P = 100 x [K’ / (K’ + 1)] […]
The […]
KIAM = (tr – t0) / t0; Pm = (KIAM / MW4) x 1010
Compounds with a Pm >0.85 are predicted to be BBB permeable (CNS+) at pH 7.4.
Brain Tissue Binding Assay […]
Cat#23235). Brain homogenate was diluted to 20 mg/mL in PBS (pH 7.4) and added to Slide-A-Lyzer™ MINI Dialysis Devices, 10K MWCO dialysis cups (Thermo Fisher Scientific, Cat#PI88401) in a 48-well plate containing PBS (500 µL; pH 7.4). 1 µL of 1 mM compound was added to the brain homogenate (final concentration: 2 µM compound, 0.5% DMSO) and incubated on a rocker for 4.5 hours at 37 °C. 50 µL of brain homogenate (within the dialysis cup) and PBS (within the 48-well plate) were transferred to new microcentrifuge tubes containing 200 µL of quenching reagent (100% acetonitrile) containing internal […]
standard. […]

[2] = target: T3, potassium channel hERG (human) (Homo sapiens, UniProt Q12809); experiment: hERG [3H] dofitilide binding assay
T3 construct: Eurofins (CEREP PanLabs)
T3 sequence (Q12809 whole entry): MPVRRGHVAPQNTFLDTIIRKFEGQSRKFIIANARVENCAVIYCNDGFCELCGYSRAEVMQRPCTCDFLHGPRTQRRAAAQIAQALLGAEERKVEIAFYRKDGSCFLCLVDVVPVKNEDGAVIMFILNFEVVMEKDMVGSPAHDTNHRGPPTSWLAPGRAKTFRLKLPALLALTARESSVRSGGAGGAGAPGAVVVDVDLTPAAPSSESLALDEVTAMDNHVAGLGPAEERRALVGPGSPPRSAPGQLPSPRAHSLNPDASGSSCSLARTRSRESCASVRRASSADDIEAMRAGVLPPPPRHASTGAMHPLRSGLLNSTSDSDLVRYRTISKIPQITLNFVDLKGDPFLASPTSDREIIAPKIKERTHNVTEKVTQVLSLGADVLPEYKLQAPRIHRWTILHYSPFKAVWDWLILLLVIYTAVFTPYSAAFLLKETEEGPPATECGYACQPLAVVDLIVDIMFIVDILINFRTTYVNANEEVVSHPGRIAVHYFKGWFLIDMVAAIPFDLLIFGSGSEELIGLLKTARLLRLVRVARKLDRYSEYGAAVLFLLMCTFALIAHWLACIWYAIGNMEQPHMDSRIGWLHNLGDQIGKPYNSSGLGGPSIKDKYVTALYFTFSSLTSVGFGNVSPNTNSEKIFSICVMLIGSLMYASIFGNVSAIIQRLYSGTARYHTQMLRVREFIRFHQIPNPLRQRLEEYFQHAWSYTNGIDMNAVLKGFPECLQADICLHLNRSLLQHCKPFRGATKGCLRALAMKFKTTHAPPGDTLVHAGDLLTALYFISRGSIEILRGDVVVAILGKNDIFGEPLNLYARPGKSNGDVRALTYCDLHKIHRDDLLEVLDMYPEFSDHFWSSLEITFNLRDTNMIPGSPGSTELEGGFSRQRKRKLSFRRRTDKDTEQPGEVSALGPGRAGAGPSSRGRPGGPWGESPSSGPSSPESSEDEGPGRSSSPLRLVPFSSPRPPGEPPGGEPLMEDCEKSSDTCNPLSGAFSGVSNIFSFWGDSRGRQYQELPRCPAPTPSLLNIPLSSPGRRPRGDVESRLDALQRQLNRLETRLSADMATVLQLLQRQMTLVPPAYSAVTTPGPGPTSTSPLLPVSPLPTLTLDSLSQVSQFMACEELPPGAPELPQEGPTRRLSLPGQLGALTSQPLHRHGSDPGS
From the text: The raw data uncorrected for contribution of
Animals were euthanized at
biochemical analyses (Fig. S3).
at Lotus Separations (Princeton, NJ).

[3] = tested on: BACE1 cleavage of rat APP; experiment: Pilot PD of FAH65 vs. verubecestat in rats (CSF and medial cortex biomarkers); type: in vivo; details: oral, 30 mg/kg
Description: The hERG study was conducted at Eurofins (CEREP PanLabs).
Compound binding was calculated as a % inhibition of the binding of a radioactively labeled ligand specific for each target. While results showing an inhibition or stimulation higher than 50% are considered to
For these pilot experiments eAPP as described in Descamps et al (26) is crosslinked to a the CM5 Biacore chip. […] The raw data uncorrected for contribution of running buffer is fit to equilibrium binding data and corrected for the contribution of the running buffer to
pharmacokinetic (PK)/pharmacodynamic (PD) study to assess relative brain permeability and target engagement. Adult male and female Sprague-Dawley rats (≥ 200 g) were dosed at 30 mg/kg/day with
Animals were euthanized at 1, 2, 3, 6, 12 and 24 hours (n = 1/time point; 2 untreated controls) post-dose by pentobarbital over-anesthesia followed by collection of cerebrospinal fluid (CSF), trans-cardial blood collection for the isolation of plasma, perfusion with cold saline, and collection of brain tissue (medial cortex) for biochemical analyses (Fig. S3).

[4] = Efficacy testing in B254 mice; type: in vivo, mouse; details: both sexes, B254, mouse, brain, oral, 30 mg/kg BID, read-out: mean brain level of compound
From the text: (§1) B254 mice are an AD model comprising expression of human APP with Swedish and Indiana mutations along with a D664A substitution and endogenous murine tau, as described in Galvan et al.. In our in vivo studies, we detected impairment in learning and memory in B254 D664A mice at 5–6 months of age (end of chronic treatment) in the novel location and novel object spatial memory testing paradigms. We note that previous studies have reported conflicting findings for such impairments when using in the Morris Water Maze. […] In a later study performed by a different group, it was reported that at both 2–3 or 5–7 months of age B254 and J20 mice had similar abnormalities relative to non-transgenic mice in spatial and nonspatial learning and memory. Our findings were in alignment with the latter studies.
(§2) Male and female 4-5 month-old B254 mice in the subchronic and chronic treatment were administered FAH65 via pipette feeding by the method of Atcha et al. at a dose of 30 mg/kg BID (60 mg/kg/day). Mice were weighed before the first dose for the calculation of volume to be administered. The formulation used comprised FAH65 hydrochloride as a 40 mg/mL solution in water plus 30 mg/mL in strawberry syrup.
(§3) In the pilot subchronic study, mice were treated for 10 days, and in the follow-up study, for 26 days. One week before the end of the study, mice in the pilot study underwent Novel Object Recognition (NOR) memory testing, and mice in the follow-up chronic study underwent both NOR and Novel Location Recognition (NLR) testing as described elsewhere. Briefly, mice are introduced to two identical, parallel and evenly objects in an opaque 30 × 40 cm arena (box without a lid) with navigation marks on the wall, for 10 min. For Novel Location Recognition (NLR), after a 2.5-h interval, the mouse is returned to the arena wherein one identical object has been moved diagonally. The time spent and number of discreet interactions with the objects in the original location and in the new location over 10 min is recorded. The mouse is then removed from the arena, and after an additional 2.5-h interval, for the Novel Object Recognition (NOR) phase, is returned to the arena wherein the objects are in the original position, but one is a new, different object. The time spent and number of discreet interactions with the objects in the original location and in the new location over 10 min is recorded. The novelty preference was calculated by […].
(§4) For in vivo studies, Individual tissues were weighed and sonicated on ice with AlphaLISA Lysis Buffer complemented with HALT (Fisher catalog # 78446) to give a 10 % W/V sonicate. Total protein concentration was assessed by BCA assay (Fisher catalog # 23227) following manufacturer recommendations.
(§5) For the ELISA assay to assess sAPPβ levels in brain an IBL ELISA (kit #27733) specific for sAPPβ with the Swedish (K595 N/M596L) mutation that is present in the APP transgene of the mouse model used following the kit instructions. Briefly, 499 μL of EIA buffer was added to individual tubes for each sample, 1 μL of sample added, vortexed and centrifuged. To each assay plate well, 100 μL of sample was added, and the covered plate incubated overnight at 4 °C. The plate(s) was washed 4 times with 350 μL/well wash buffer, then 100 μL/well of labeled antibody added followed by incubation for 30 min at 4 °C. After five washes, 100 μL chromogen solution was added to each well and incubated for 30 min at RT in the dark. Stop solution (100 μL/well) was then added and the plate read at 450 nm. […]

B254 mice = experiment: Efficacy testing in B254 mice; type: in vivo, mouse
From the text: as §1, §2, §3, §4, §5

[5] = chronic study, oral 30 mkd, 26 days

T1 sequence (P56817 46-501): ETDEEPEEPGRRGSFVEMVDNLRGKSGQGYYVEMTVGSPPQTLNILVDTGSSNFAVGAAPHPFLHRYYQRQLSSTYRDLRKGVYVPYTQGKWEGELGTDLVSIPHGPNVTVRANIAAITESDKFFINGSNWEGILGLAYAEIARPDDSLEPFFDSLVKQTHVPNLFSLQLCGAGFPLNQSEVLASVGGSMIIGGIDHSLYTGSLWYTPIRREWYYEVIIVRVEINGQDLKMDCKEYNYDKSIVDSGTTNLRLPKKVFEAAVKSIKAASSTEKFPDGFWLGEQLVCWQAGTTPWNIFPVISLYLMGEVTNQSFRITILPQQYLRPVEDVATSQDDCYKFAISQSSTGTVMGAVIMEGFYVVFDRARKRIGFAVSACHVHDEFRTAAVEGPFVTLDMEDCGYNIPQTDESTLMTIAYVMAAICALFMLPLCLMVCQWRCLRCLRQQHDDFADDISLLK

EC50 (BACE1 cleavage of NRG1; SEAP-NRG1, HEK293): > 10 µM
IC50 (BACE1 cleavage of NRG1; Table S1): 2 µM
substrate selectivity IC50 NRG1/IC50 APP (BACE1 cleavage of NRG1; ratio): > 200
Plasma (HSA) binding, funbound [1]: 0.44%
concentration at 2 h ([4]; chronic, 2 h after last day dosing): ~50 ng/g
concentration at 2 h ([4]; subchronic, 2 h after the last dose): ~20 ng/g
Compound: Cc1cc(C2(c3cccc(-c4cncnc4)c3)N=C(N)N(C)C2=O)ccc1OC(F)F (stereo not drawn) [FAH65]
EC50 [2]: > 10 µM
IC50 [2]: > 10 µM
time post-delivery of lowest sAPPβ in brain (medial cortex) [3]: 6 h
time post-delivery of lowest sAPPβ in CSF ([3]; 1- and 2-h FAH65 samples not available): 3 h
Aβ1-40 in CSF compared with Veru-treated rats ([3]; in words): lower
sAPPα levels in brain medial cortex ([3]; in words): higher
sAPPβ in CSF compared with Veru ([3]; in words): lower
novelty preference in NOR vs. vehicle (B254 mice; [5]): significant increase
novelty preference in Novel Location Recognition (NLR) vs. vehicle (B254 mice; [5]): significant increase
brain level of Aβ1-42 vs. vehicle (B254 mice; chronic, 26 days): not significantly different
brain level of sAPPβ vs. vehicle (B254 mice; chronic, 26 days): not significantly different
sAPPα in brain tissue vs. vehicle (B254 mice; chronic, 26 days): significantly higher
sAPPβ/sAPPα ratio in brain tissue vs. vehicle (B254 mice; chronic, 26 days): significantly lower
Novel Object Recognition (NOR) performance vs. vehicle (B254 mice; pilot subchronic study, oral 30 mkd, 10 days): not significantly increased
GFAP, IP-10, Aβ1-38, Aβ1-40, Aβ1-42 and Aβ1-42/1-40 ratio in brain (MSD) vs. vehicle (B254 mice; subchronic study): no significant differences
APP β-CTF in brain tissue vs. vehicle (B254 mice; subchronic, 10 days): significant decrease
Aβ 1-42 in brain vs. vehicle (B254 mice; subchronic, 10 days): not significant
p-tau/t-tau ratio in brain vs. vehicle (B254 mice; subchronic, 10 days): not significant
